Source: ChEMBL document CHEMBL1131134, “A novel class of adenosine A3 receptor ligands. 2. Structure affinity profile of a series of isoquinoline and quinazoline compounds” (J Med Chem, 1998)

Tests used:
[1] = target: T1, Adenosine receptor A1 (Rattus norvegicus) (UniProt P25099); test: Antagonist activity by displacement of specific [3H]DPCPX binding in rat cortical membrane (Adenosine A1 receptor) at a Conc of […].; assay type: cell membranes
T1 sequence (whole entry): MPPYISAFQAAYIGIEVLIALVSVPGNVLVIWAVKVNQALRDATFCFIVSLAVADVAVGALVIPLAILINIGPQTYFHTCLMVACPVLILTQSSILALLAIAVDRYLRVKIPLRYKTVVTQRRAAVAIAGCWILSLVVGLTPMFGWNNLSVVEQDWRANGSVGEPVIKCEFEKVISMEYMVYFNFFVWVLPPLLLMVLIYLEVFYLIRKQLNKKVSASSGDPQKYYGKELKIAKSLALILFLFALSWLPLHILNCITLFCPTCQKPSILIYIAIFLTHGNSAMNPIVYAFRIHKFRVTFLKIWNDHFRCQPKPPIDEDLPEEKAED

[2] = target: Adenosine receptor A2a (Rattus norvegicus) (UniProt P30543); test: Antagonistic activity assayed by displacement of specific [3H]-CGS-21,680 binding in rat striatal membrane (adenosine A2A receptor) at a conc of […].; assay type: cell membranes; settings: Striatum
[3] = Relative binding affinity for adenosine receptors A1 and A3 as ratio of Ki

Sequence of Adenosine receptor A2a (Rattus norvegicus) (P30543 whole entry): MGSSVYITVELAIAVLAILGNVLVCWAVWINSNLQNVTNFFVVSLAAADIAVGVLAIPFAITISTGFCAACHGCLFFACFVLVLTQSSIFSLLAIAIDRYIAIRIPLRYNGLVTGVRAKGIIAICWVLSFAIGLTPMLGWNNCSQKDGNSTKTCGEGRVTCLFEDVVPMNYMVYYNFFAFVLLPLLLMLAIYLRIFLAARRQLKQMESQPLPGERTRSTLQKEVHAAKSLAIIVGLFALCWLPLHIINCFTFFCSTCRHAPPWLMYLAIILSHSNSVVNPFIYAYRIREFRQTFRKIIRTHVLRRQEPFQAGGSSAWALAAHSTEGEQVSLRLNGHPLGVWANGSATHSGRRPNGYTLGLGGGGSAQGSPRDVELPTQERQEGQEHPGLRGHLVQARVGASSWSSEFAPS

Row | SMILES | Displacement [1] | Displacement [2] | Ratio [3]
1 | CC(C)C(=O)Nc1nc(-c2ccccn2)cc2ccccc12 | 38% | 48% | –
2 | Oc1nc(-c2ccccn2)nc2ccccc12 | 16% | 10% | –
3 | COc1ccc(C(=O)Nc2nc(-c3ccccn3)nc3ccccc23)cc1 | 41% | 20% | –
4 | O=C(Nc1nc(-c2ccccn2)cc2ccccc12)c1ccccc1 | – | 0% | 16
5 | N=CNc1nc(-c2ccccn2)nc2ccccc12 | 38% | 17% | –
6 | Cc1cc(C)cc(C(=O)Nc2nc(-c3ccccn3)cc3ccccc23)c1 | 8% | 0% | –
7 | O=C(c1ccccc1)N(C(=O)c1ccccc1)c1nc(-c2ccccn2)cc2ccccc12 | – | 27% | 19
8 | N=C(Nc1nc(-c2ccccn2)cc2ccccc12)c1ccccc1 | – | 4% | –
9 | COc1ccc(C(=O)Nc2nc(-c3ccccn3)cc3ccccc23)cc1OC | 41% | 20% | –
10 | COc1cccc(C(=O)Nc2nc(-c3ccccn3)cc3ccccc23)c1 | 22% | 0% | –
11 | O=C(Nc1nc(-c2ccccn2)cc2ccccc12)c1ccc(Cl)c(Cl)c1 | 0% | 0% | –
12 | O=C(Nc1nc(-c2ccccn2)nc2ccccc12)c1ccccc1 | 0% | 2% | –
13 | CC(=O)Nc1nc(-c2ccccn2)nc2ccccc12 | 25% | 17% | –
14 | Cc1cccc(C)c1C(=O)Nc1nc(-c2ccccn2)cc2ccccc12 | 2% | 0% | –
15 | CC(=O)Nc1nc(-c2ccccn2)cc2ccccc12 | 24% | 18% | –
16 | O=C(Cc1nc(-c2ccccn2)cc2ccccc12)c1ccccc1 | – | 22% | 0.36
17 | Cc1ccc(C)c(C(=O)Nc2nc(-c3ccccn3)cc3ccccc23)c1 | 29% | 7% | –
18 | O=C(c1ccccc1)N(C(=O)c1ccccc1)c1nc(-c2ccccn2)nc2ccccc12 | 3% | 3% | –
19 | Oc1nc(-c2ccccn2)cc2ccccc12 | 21% | – | –
20 | Cc1cccc(C(=O)Nc2nc(-c3ccccn3)cc3ccccc23)c1 | 35% | 0% | –
21 | COc1ccc(C(=O)Nc2nc(-c3ccccn3)cc3ccccc23)cc1 | 14% | 0% | –
22 | Cc1ccc(C(=O)Nc2nc(-c3ccccn3)cc3ccccc23)c(C)c1 | 14% | 0% | –
23 | O=C(Nc1nc(-c2ccccn2)nc2ccccc12)C(F)(F)F | 8% | 0% | –
24 | O=C(Nc1nc(-c2ccccn2)cc2ccccc12)c1ccc(Cl)cc1 | 11% | 0% | –
25 | N=CNc1nc(-c2ccccn2)cc2ccccc12 | – | 42% | –
26 | O=C(Nc1nc(-c2ccccn2)cc2ccccc12)c1cccc(Cl)c1 | 42% | 0% | –
27 | Cc1ccc(C(=O)Nc2nc(-c3ccccn3)cc3ccccc23)cc1C | 16% | 0% | –
28 | Cc1ccc(C(=O)Nc2nc(-c3ccccn3)cc3ccccc23)cc1 | 37% | 0% | –
